Measured values: patent US4166125A, “2-Oxo-phenylbutanoic acid derivatives” (Grelan Pharmaceutical Co., Ltd., priority 1977, dated 1979)

Legend:
[1] = test system: writhing syndrome due to acetic acid; test: Analgesic activity, stretching method (oral administration); type: in vivo, mouse (ddY-strain)
Protocol: The experiment was carried out according to a method conforming to Koster R. et al [Federation Proceedings 18, 412, (1960)]. […] 30 Minutes after administration of the test compound, 0.6% acetic acid aqueous solution was injected intraperitoneally to the mice in an amount of 0.1 ml per 10 g of body weight of the mouse, and then frequency of writhing syndrome due to acetic acid was counted for 20 minutes. Inhibition percent to the writhing syndrome was calculated in comparison with frequency of writhing syndrome counted on mice of a control group, to which only 1% gum arabic solution was orally administered.

[2] = test system: febrile body temperature (Brewer's yeast); test: Antipyretic activity (oral administration); type: in vivo, rat (Sprague-Dawley strain); details: 250 mg/Kg oral
Protocol: Antipyretic activity (oral administration)
According to a method conforming to Winter, C. A. et al [The Journal of Pharmacology and Experimental Therapeutics 133, 117, (1961)], 20% Brewer's yeast suspension in physiological saline was injected subcutaneously to 5 male rats in each group (Sprague-Dawley strain) weighing 200 to 250 g in an amount of 1.0 ml per 100 g of body weight of the rat. After fasting for 18 hours, each test compound suspended in 1% gum arabic solution was administered orally to the rats in an amount of 1.0 ml per 100 g of body weight. Then, the rectal temperature of the rats was taken.

[3] = Stability on storage at 50° C. and humidity of 70% for 1 month; type: physicochemical; details: among the compounds (I)
Protocol: For example, when the compounds (I) are kept at temperature of 50° C., and humidity of 70% for 1 month, no substantial change with respect to their appearances and values of quantitative analysis was observed, and no decomposition product was detected by thin-layer chromatography. Thus compounds (I) are prepared for administration in the form of pharmaceutical compositions according to conventional methods in the field of the art, and it is possible to prepare a pharmaceutical composition which comprises a therapeutically effective amount of at least one compound of the general formula (I) as an active ingredient, i.e. anti-inflammatory composition, in solid administration form (e.g. tablets, granules, powders, capsules, suppository), and liquid administration form (e.g. suspension, emulsion). In that case, as carrier, vehicle, solvent or dispersant, there may be used any of those which are known in the field of art. There may be exemplified water, starch, lactose, crystalline cellulose, magnesium stearate, hydroxypropyl cellulose, mannitol, carboxymethyl cellulose, glycol, ethanol, corn oil, peanut oil, castor oil, cacao butter, isocacao, polyoxyethylene stearate. […]

[4] = test system: gross behaviour of the mice; test: Gross behaviour (1) (oral administration), Irwin's multi-dimensional observation; details: oral, 500, 1000, 2000 and 4000 mg/Kg, 4 hours
Protocol: In 1% gum arabic solution was suspended 2-oxo-3-[4-(1-oxo-2-isoindolinyl)phenyl]butanamide at a concentration of 20%. […] The dosages of the compound were 500, 1000, 2000 and 4000 mg/Kg.
To mice of a control group was administered orally only 1% gum arabic solution.

CC(C(=O)C(N)=O)c1ccc(N2Cc3ccccc3C2=O)cc1 (stereo not shown) [2-oxo-3-[4-(1-oxo-2-isoindolinyl)phenyl]butanamide]
Inhibition to writhing syndrome ([1]; 100 mg/Kg oral): 4%
Inhibition to writhing syndrome ([1]; 200 mg/Kg oral): 33%
Inhibition to writhing syndrome ([1]; 400 mg/Kg oral): 62%
Dose-response of inhibition to writhing syndrome ([1]; dose range of 100 to 400 mg/Kg): clear dose-response
Drop of febrile body temperature [2]: 1 °C
Stability (in words) [3]: more stable
Abnormal behaviour (depression to spontaneous activity, loss of righting reflex, tremor, convulsion, abnormal gait, loss of pinna reflex, loss of corneal reflex, abnormality of respiration) [4]: not observed
